Source: patent US12214036B2, “Combination therapy comprising AXL/MER and PD-1/PD-L1 inhibitors” (Incyte Corporation, priority 2020, dated 2025)

System: MC38 tumor
Test: MC38 tumor model, combination with checkpoint blockade
Format: in vivo, C57BL/6 mice
From the text: MBT-2 cells were obtained from the Japanese Collection of Research Bioresources Cell Bank and were maintained in DMEM supplemented with 10% FBS. MC38 cells were obtained from the NCI. 4T1 cells were obtained from ATCC and maintained in RPMI media supplemented with 10% FBS. For MBT-2 experiments, 5×10^5 MBT-2 cells were inoculated subcutaneously into the right hind flank of 6- to 8-week-old C3H mice or athymic nude mice (Charles River Laboratories, Wilmington, Mass.). For MC38 studies, 12-week old female C57BL/6 mice were inoculated with brei of MC38 tumors (in-vivo passage 6) into the right hind flank. For 4T1 studies, 7.5×10^5 4 T1 cells were inoculated subcutaneously into the right hind flank of 6- to 8-week-old female BALB/c mice or athymic nude mice (Charles River Laboratories). Mice were randomized by tumor volume with n=10-12 per group. […] Mice were monitored for tumor growth and overt tolerability over the course of the experiment. […] Tumor volume was calculated using the formula (L×W^2)/2, where L and W refer to the length and width dimensions, respectively. Tumor growth inhibition (TGI) was calculated using the formula (1−(VT/VC))×100, where VT is the tumor volume of the treatment group on the last day of treatment, and VC is the tumor volume of the control group on the last day of treatment. […]

CC(C)C(=O)N1CCC(c2cc(-c3ccc(NC(=O)c4cn(C(C)C)c(=O)n(-c5ccccn5)c4=O)cc3)c3c(N)ncnn23)CC1 [Compound 1, N-(4-(4-Amino-7-(1-isobutyrylpiperidin-4-yl)pyrrolo[1,2-f][1,2,4]triazin-5-yl)phenyl)-1-isopropyl-2,4-dioxo-3-(pyridin-2-yl)-1,2,3,4-tetrahydropyrimidine-5-carboxamide]
antitumor activity (tumor volume) (MC38 in C57BL/6 mice, Compound 1 oral BID, anti-PD-L1 15 mg/kg i.p. twice a week, FIG. 8A): single-agent antitumor activity | proliferation of CD4+ and CD8+ tumor-infiltrating lymphocytes (Ki67+) (MC38 tumors, FIGS. 8B and 8C): induced proliferation
